Experimental findings from PubChem BioAssay (NCI) are described below.

Where “and” joins values, the source holds several entries; their conditions need not be identical. Identical values can stand only once.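 Five compound concentrations were applied to cells in 96-well plates for 48 hours; endpoints were derived by simple linear interpolation of the resulting dose-response curve. GI50 is the concentration that inhibits growth by half. TGI: concentration producing complete growth inhibition.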

What all share (assay): NCI-60 cell line screen, 48 h
For experiment [1], the system named is LOX IMVI melanoma.
Experiment [2] has as its system SN12C renal.
The subject of experiment [3] is OVCAR-3 ovarian.
Experiment [4] relates to SF-295 CNS.
The test system of experiment [5] is SK-MEL-5 melanoma.
The test system of experiment [6] is SK-MEL-28 melanoma.
In experiment [7] the test system is DU-145 prostate.
Experiment [8] has as its system PC-3 prostate.
Experiment [9] relates to A498 renal.
The test system of experiment [10] is 786-0 renal.

In the case of `COc1ccc2c(CN3CCCC[C@H]3C(=O)O)cc3cc4c(cc3c2c1)OCO4`, the GI50 in experiment [1] was 1.37 µM; in experiment [2], 1 µM; in experiment [3] it was 0.688 µM; in [4] it was 0.622 µM; in [5] it was 1.25 µM; in experiment [6], 0.7 µM. Further, the GI50 in experiment [7] was 5.72 µM; in experiment [8], 2.53 µM; in [9], 1.55 µM; in [10] it was 6.71 µM. The TGI in [1] came out at 3.15 µM; in experiment [2], 4.31 µM; in experiment [3], 3.41 µM; in experiment [4], 3.53 µM; in experiment [5], 2.5 µM; in experiment [6], 2.33 µM. Moreover, the TGI is 24.7 µM in experiment [7], 7.14 µM in experiment [8], 3.06 µM in experiment [9] and greater than 100 µM in experiment [10].

Regarding `Cc1cccc(/C=N/NC(=S)N2CCCC2)n1`, the TGI in experiment [1] was greater than 41.4 µM; in experiment [3] it was 0.843 µM and 0.0848 µM; in [4], 4.24 µM; in [5] it was 0.823 µM; in experiment [6], greater than 100 µM; in experiment [9], 5.61 µM. In addition, the TGI in [10] turned out to be 2.85 µM. Further, the GI50 in [2] was 0.719 µM; in experiment [3] it was 0.28 µM; in [4] it was 1.08 µM; in experiment [6], 1.42 µM; in [7], 0.98 µM; in experiment [8], 0.581 µM. In addition, the values for the GI50 in [9] and in experiment [10] were 7.22 µM and 2.45 µM, respectively.

For `CC(C)(C)C(=O)OCC1C(=O)OCC1C(=O)N1Cc2cc3ccccc3nc2C1` (centres undefined), the TGI came out at 15.3 µM in experiment [1]; 16.8 µM in experiment [2]; 11.8 µM in [3]; 27.4 µM in [4]; 28.5 µM in experiment [5]; 10.8 µM in experiment [6]. The TGI in experiment [7] worked out at 30.2 µM; in experiment [8], 23 µM; in [9], 26 µM; in experiment [10], 7.69 µM.

Take `CC[C@@]1(O)C(=O)OCc2c1cc1n(c2=O)Cc2cc3cc4c(cc3nc2-1)OCO4`: the GI50 is less than 0.001 µM in [1], 0.0135 µM in experiment [3], 0.0971 µM in [6] and 0.00137 µM in experiment [9]. Also, the TGI in experiment [1] is 0.109 µM and 0.0506 µM; in experiment [2], less than 0.0125 µM; in experiment [3], 0.0793 µM; in [4], 0.025 µM; in experiment [5], 0.0721 µM and < 0.0281 µM; in experiment [7] it was 0.00572 µM. The TGI in experiment [8] is greater than 100 µM; in experiment [9] it was 0.0685 µM and 0.114 µM; in experiment [10], 0.00274 µM.

Take `Cc1c(C(=O)Nc2ccccc2)sc2ncn(Cc3cccc(Cl)c3)c(=O)c12`: the GI50 in experiment [1] was 57.3 µM; in experiment [2], 20 µM; in experiment [3], 41 µM; in [4], 32.4 µM; in [5] it was 25.7 µM; in experiment [6], greater than 100 µM. Also, the GI50 in experiment [7] was 34.9 µM; in experiment [8] it was 16.5 µM; in experiment [10], 29.6 µM. The TGI in [1] is greater than 100 µM; in experiment [2], 85.1 µM; in experiment [3], greater than 100 µM; in experiment [4], greater than 100 µM; in [5], greater than 100 µM; in experiment [6], greater than 100 µM. Also, the TGI in [7] was greater than 100 µM; in experiment [8], 49.6 µM; in [10], greater than 100 µM.

For `COC1CC(O[C@H]2CC[C@@]3(C)[C@H](CC[C@@H]4[C@@H]3CC[C@]3(C)[C@@H](C5=CC(=O)OC5)[C@@H](OC(C)=O)C[C@]43O)C2)OC(C)C1O` (some centres undefined), the GI50 in [1], in experiment [3], in experiment [4], in experiment [5], in experiment [6] and in [7] was less than 0.01 µM each time. In addition, the GI50 in [8], in [9] and in [10] was less than 0.01 µM in each case. Also, the TGI in [1], in experiment [3], in experiment [4], in experiment [5], in [6] and in experiment [7] was less than 0.01 µM in each case. In addition, the TGI in experiment [8] was less than 0.01 µM; in experiment [9], less than 0.0137 µM; in experiment [10], less than 0.01 µM.

As to `CC1=NN(C(=O)c2ccccc2O)C(=O)/C1=C/c1ccc(O)cc1`, the TGI is greater than 82.1 µM in experiment [1]; greater than 78.7 µM in [2]; 3.43 µM in experiment [3]; greater than 100 µM in experiment [4]; greater than 100 µM in [5]; greater than 100 µM in experiment [6]. The TGI in experiment [7], in experiment [8] and in experiment [10] was greater than 100 µM in each case.

As for `CCOC(=O)CCC(NC(=O)OCc1ccccc1)C(=O)NC(CCC(=O)OCC)C(=O)NC(CCC(=O)OCC)C(=O)NC(CCC(=O)OCC)C(=O)NC(CCC(=O)OCC)C(=O)NC(CCC(=O)OCC)C(=O)NC(CCC(=O)OCC)C(=O)OCC` (centres undefined), the TGI in experiment [1], in experiment [2], in experiment [3], in experiment [5], in [6] and in [7] was greater than 100 µM in each case. Further, the TGI in [8], in experiment [9] and in experiment [10] was greater than 100 µM each time.

Turning to `CCCCOC(=O)N1CCN(/[N+]([O-])=N/Oc2ccc([N+](=O)[O-])cc2[N+](=O)[O-])CC1`, the GI50 is 2.27 µM in [1]; 11 µM in experiment [2]; 1.68 µM in experiment [3]; 28.6 µM in experiment [4]; 4.91 µM in [5]; 13.7 µM in experiment [6]. For the same compound, the GI50 in [7] is 3.35 µM; in [8], 14 µM; in experiment [10], 2.47 µM. In addition, the TGI in experiment [1] is 5.06 µM; in experiment [2] it was 31.5 µM; in experiment [3] it was 4.12 µM; in experiment [4], greater than 100 µM; in experiment [5], 19.8 µM; in experiment [6] it was 35.7 µM. Moreover, the figures for the TGI in experiment [7], in experiment [8] and in [10] were 12 µM, 30.8 µM and 5.67 µM, respectively.

Turning to `COc1cc(OC)c(C/C=C/c2ccccc2)cc1O`, the TGI in experiment [1] was 29.4 µM; in experiment [2] it was 32.7 µM; in experiment [3], 31.1 µM; in experiment [5] it was 29.3 µM; in experiment [6], 30.4 µM; in experiment [7] it was 31.5 µM. The TGI in [8] was found to be 35.6 µM; in experiment [9] it was 28.8 µM; in experiment [10], 32.2 µM.
